This assay concerns the target T1, Recombinant human IKK2 (residues 1-737) (Homo sapiens, UniProt O14920).
T1 construct: Recombinant human IKK2 (residues 1-737) was expressed in baculovirus as a C-terminal GST-tagged fusion protein; GST (C); made in house
T1 sequence (O14920 1-737): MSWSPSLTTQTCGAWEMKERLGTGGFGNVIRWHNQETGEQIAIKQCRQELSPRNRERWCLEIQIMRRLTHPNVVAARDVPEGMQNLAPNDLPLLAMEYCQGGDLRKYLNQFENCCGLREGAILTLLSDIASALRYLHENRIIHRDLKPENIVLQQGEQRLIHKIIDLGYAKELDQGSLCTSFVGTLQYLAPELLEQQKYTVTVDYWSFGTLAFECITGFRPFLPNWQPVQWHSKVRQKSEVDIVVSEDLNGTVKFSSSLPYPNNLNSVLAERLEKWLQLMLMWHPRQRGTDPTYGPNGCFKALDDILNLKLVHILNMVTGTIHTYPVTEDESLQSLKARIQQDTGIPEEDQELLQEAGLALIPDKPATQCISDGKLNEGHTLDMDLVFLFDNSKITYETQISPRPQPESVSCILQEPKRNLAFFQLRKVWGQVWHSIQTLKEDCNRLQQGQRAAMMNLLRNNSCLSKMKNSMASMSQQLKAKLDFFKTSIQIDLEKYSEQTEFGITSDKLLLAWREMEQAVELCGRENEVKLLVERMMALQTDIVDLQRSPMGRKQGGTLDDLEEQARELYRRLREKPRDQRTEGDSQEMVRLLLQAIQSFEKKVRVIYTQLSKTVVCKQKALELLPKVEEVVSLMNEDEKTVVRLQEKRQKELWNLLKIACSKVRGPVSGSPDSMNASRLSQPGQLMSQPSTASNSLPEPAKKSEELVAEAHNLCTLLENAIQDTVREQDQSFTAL
The assay is described as follows: IKK2 Assay (TR-FRET). As to conditions: IKK2 5 nM, GST-IκBα substrate 25 nM, ATP 1 μM, 30 minutes at room temperature. The class given is biochemical. The method, then:
Recombinant human IKK2 (residues 1-737) was expressed in baculovirus as a C-terminal GST-tagged fusion protein, and its activity was assessed using a time-resolved fluorescence resonance energy transfer (TR-FRET) assay. Briefly, IKK2 (5 nM final) diluted in assay buffer (50 mM HEPES, 10 mM MgCl2, 1 mM CHAPS pH 7.4 with 1 mM DTT and 0.01% w/v BSA) was added to wells containing various concentrations of compound or DMSO vehicle (3% final). The reaction was initiated by the addition of GST-IκBα substrate (25 nM final)/ATP (1 μM final), in a total volume of 30 μl. The reaction was incubated for 30 minutes at room temperature, then terminated by the addition of 15 μl of 50 mM EDTA. Detection reagent (15 μl) in buffer (100 mM HEPES pH 7.4, 150 mM NaCl and 0.1% w/v BSA) containing antiphosphoserine-IκBα-32/36 monoclonal antibody 12C2 (Cell Signalling Technology, Beverly Mass., USA) labelled with W-1024 europium chelate (Wallac O Y, Turku, Finland), and an APC-labelled anti-GST antibody (Prozyme, San Leandro, Calif., USA) was added and the reaction was further incubated for 60 minutes at room temperature. The degree of phosphorylation of GST-IκBα was measured using a Packard Discovery plate reader (Perkin-Elmer Life Sciences, Pangboume, UK) as a ratio of specific 665 nm energy transfer signal to reference europium 620 nm signal.
(Time-resolved FRET reads energy transfer from a long-lived donor to a nearby acceptor.)
Regarding `NC(=O)c1cc(-c2ccc(Cl)cc2)cc2cc[nH]c12` [Example 7, 5-(4-chlorophenyl)-1H-indole-7-carboxamide], the IC50 was less than 15.8 µM.

On to `NC(=O)c1cc(Br)cc2cc[nH]c12` [Intermediate 7, 5-bromo-1H-indole-7-carboxamide], for which the IC50 was less than 15.8 µM.

`NC(=O)c1cc(Br)cc2c(C3CCNCC3)c[nH]c12` [Intermediate 30, 5-bromo-3-(4-piperidinyl)-1H-indole-7-carboxamide]: the IC50 is less than 15.8 µM.

Broadly, the IC50 is the point on the concentration scale where inhibition reaches its midpoint.
